Experimental data as given in ChEMBL document CHEMBL1629586, “Preparation and stability of voriconazole eye drop solution” (Antimicrob Agents Chemother, 2009).

Assay: Chemical stability of the compound at pH 7 after 30 days
Type: physicochemical
Details: buffer, pH 7, 720 h

Question: For `C[C@@H](c1ncncc1F)[C@](O)(Cn1cncn1)c1ccc(F)cc1F` [VORICONAZOLE], which Stability is on record?
Answer: Stable
